# Source: US6989375B2, “Enhanced expression of transgenes” (priority 1996, dated 2006)
# Test system: H1299 cells
# Test: β-gal expression by X-gal staining after Ad/CMV/β-gal infection of agent-treated cells
# Type: cell-based, human
# Conditions: for Enhancement of β-gal gene expression after treatment with antineoplastic agent: wide range of drug concentrations, 24 h, infected with Ad/CMV/β-gal 48 hours after drug removal
# Procedure: Gene Delivery Protocol: In vitro gene delivery was performed by incubating cells in six-well plates (Falcon Plastics, Lincoln Park, N.J.) for two hours with Adv/CMV/β-gal in appropriate medium supplemented with 2% FCS. The multiplicity of infection (MOI: number of viral particles per target cell) was based on cell counts of untreated wells. Fresh, complete medium with the appropriate concentration of FCS was then added to the wells at the end of the infection period and cells were then incubated for 20 hours at 37° C., 5% CO2. After washing the cells with ice cold PBS, the cells were fixed with ice-cold 1.25% glutaraldehyde and stained with X-gal (5-bromo-4-chloro-3-indolyl-β-d-galactoside; Gibco BRL) as previously described (MacGregor et al., 1987). The transduction efficiency by Adv/CMV/β-gal was determined by the percentage of positive stained cells (blue) for β-galactosidase activity (1000 cells counted per well).
# Time Course and Dose Response: To determine the time course of enhancement, H1299 and H460 cells were seeded in 6-well plates (2×10^5 cells/2 mls/well). After an overnight incubation period (37° C., 5% CO2), the initial medium was replaced with freshly prepared media (2 ml) containing 0.062 μg/ml CDDP (Sigma Chemicals, St. Louis, Mo.) (CDDP was prepared fresh by dissolving in distilled water) and the cells were then incubated for 24 hours at 37° C., with 5% CO2. CDDP-treated cells were then washed twice with PBS and subsequently infected with Ad/CMV/β-gal (MOI=1 for H1299 and MOI=5 for H460) on days 0, 1, 2, 3, 4, 5 or 6 following CDDP removal, to determine the time point at which maximal enhancement of expression was occurring. To establish the dose of CDDP needed to produce maximum enhancement, the cells were treated with different concentrations of CDDP (serial, 1:4 dilutions, ranging from 4 μg/ml to 0.0002 μg/ml, 5 ml per 60 mm dish) for 24 hours and subsequently incubated with Ad/CMV/β-gal 48 hours after removal of CDDP. To study if exposure of malignant cells to different classes of antineoplastic agents would lead to a similar elevation of gene expression, H1299 cells were treated with vincristine (Eli Lilly and Co, Indianapolis, Ind.), methotrexate (Lederle Pharmaceuticals, Pearl River, N.Y.), 5-fluorouracil (SoloPak Laboratories, Elk Grove Village, Ill.), epotoside (Bristol Laboratories, Princeton, N.J.) and transplatin (the isomer of CDDP that has no anticancer activity, Sigma Chemical, St. Louis, Mo.) in the similar fashion as CDDP treatment and then infected with Ad/CMV/β-gal 48 hours after removal of drug-containing media. H1299 cells were treated with 2, 4, 8, or 16 Grey (Gy) of ionizing irradiation and then similarly infected 72 hours after irradiation. Untreated cells that were similarly infected, served as controls.
compound,measurement,setting,value
O=c1[nH]cc(F)c(=O)[nH]1 [5-fluorouracil],Enhancement of β-gal gene expression after treatment with antineoplastic agent,,did not result in enhanced gene expression
"COc1cc([C@@H]2c3cc4c(cc3[C@@H](O[C@@H]3O[C@@H]5CO[C@@H](C)O[C@H]5[C@H](O)[C@H]3O)[C@H]3COC(=O)[C@H]23)OCO4)cc(OC)c1O [VP-16, etoposide]",Enhancement of β-gal expression (FIG. 3),"drugs at 0.062 μg/ml or irradiated with 8 Greys, stained 24 hrs after infection",Enhancement of β-gal expression was observed
same,Enhancement of β-gal gene expression after treatment with antineoplastic agent,,enhanced gene expression
CN(Cc1cnc2nc(N)nc(N)c2n1)c1ccc(C(=O)N[C@@H](CCC(=O)O)C(=O)O)cc1 [methotrexate],Enhancement of β-gal gene expression after treatment with antineoplastic agent,,did not result in enhanced gene expression
N.N.[Cl][Pt+2][Cl] [transplatinum],Enhancement of β-gal gene expression after treatment with antineoplastic agent,,did not result in enhanced gene expression
CC[C@]1(O)C[C@H]2CN(CCc3c([nH]c4ccccc34)[C@@](C(=O)OC)(c3cc4c(cc3OC)N(C=O)[C@H]3[C@@](O)(C(=O)OC)[C@H](OC(C)=O)[C@]5(CC)C=CCN6CC[C@]43[C@@H]65)C2)C1 [vincristine],Enhancement of β-gal gene expression after treatment with antineoplastic agent,,did not result in enhanced gene expression
